Measurements as given in patent US20250018049A1, “COMPOUNDS FOR DEGRADING CYCLIN-DEPENDENT KINASE 2 VIA UBIQUITIN PROTEOSOME PATHWAY” (NIKANG THERAPEUTICS, INC., priority 2020, published 2025).

Assays:
[1] = biological target: T1, CDK2 (Homo sapiens, UniProt P24941); test: NanoBRET CDK2 engagement assay; type: cell-based; parameters: expressed in transfected cells; details: OVCAR3 cells with stable CDK2-Luciferase vector, 24 hours treatment
Protocol: OVCAR3 cells with stable transfection of CDK2-Luciferase vector were seeded into 96-well plate at a density of 20,000 cells per well, 50 μL Opti-MEM medium supplemented with 1% FBS. Following morning, cells were treated with compounds of the disclosure, with starting concentration at 3 μM and ½ log dilution down to 0.3 nM for 24 hours at 37° C. DMSO treatment serves as control. Compound engagement was then measured using NanoBRE™ Kinase Kit from Promega (Part Number: CS1810C122, NanoBRET™ TE Kinase Kit #10, 1K) following manufacturer's instruction. For 24 hours treatment, tracer was added only for the last 2 hours. Briefly, 2.5 μL of complete 20× NanoBRET Tracer was added to the cells in suspension. Immediately prior to BRET measurements, prepare 3× Complete NanoBRET® Nano-Glo® Substrate in Opti-MEM without serum and phenol red. Without any delay, 25 μL per well of 3× Complete NanoBRET™ Nano-Glo® Substrate for a 96-well plate was added and mixed well. Signal was then read on a CLARIOstar® plate reader (measure donor emission (e.g., 450 nm) and acceptor emission (e.g., 610 nm or 630 nm) using a NanoBRET™-compatible luminometer. Target engagement was calculated with DMSO treatment as 100% signal, and IC50 was calculated by GraphPad Prism 9.

[2] = biological target: T1, CDK2; test: Phospho-Rb HTRF measurement in OVCAR3 cells (inhibition of CDK2); type: cell-based; parameters: High-Throughput Measurement of Cellular Endogenous CDK2; endogenous in cells; host or cells: OVCAR3; details: pRB(S807/811) assay, 24 h compound treatment
Protocol: Phosphorylation of RB protein at S780 and S807/811 were measured using HTRF phospho-RB cellular kits (Cat #64RBS780PEG and 64RBS807PEG) from Cisbio.
On Day 1, OVCAR3 or KYSE520 cells were seeded into 96-well tissue-culture treated plates at 20,000 cells/well in 200 μL and incubated overnight at 37° C. in CO2 atmosphere. On Day 2, the cells were treated with test compounds at concentrations from 0.3 to 10,000 nM using HP D300 digital dispenser. Twenty-four hours after compound treatment, cell culture media was removed by flicking the plate and tapping the plate against clean paper towel. Immediately 30 μL 1× lysis buffer was supplemented from the kit and the plate was incubated at room temperature on shaker for 30 min. After homogenization by pipetting up and down, 8 μL cell lysate from 96-well cell culture plate was transferred to 384-well small volume white detection plate. 2 μL premixed detection solution was added and the plate was covered with sealer. To prepare the detection solution, d2 conjugated-phospho-RB antibody and Eu-cryptate conjugated phosphor-RB antibody were diluted into detection buffer following manufacturer's instruction. Detection plates were incubated for 4 h at room temperature and read on ClarioStar (BMG Labtech) in TR-FRET mode (665 nM and 620 nM). The TR-FRET ratio (665 nM/620 nM) was plotted against the compound concentration and normalized to DMSO controls. Half maximal inhibition concentration (IC50) values are calculated with a four-parameter logistic fit using GraphPad Prism (version 8; La Jolla, CA).

SMILES	IC50 [1]	IC50 [2]
O=C1CCC(N2C(=O)c3cc(F)c(N4CCN(Cc5cc(F)cc(S(=O)(=O)N6CCC(Nc7ncc8ccc(=O)n(C9CCCC9)c8n7)CC6)c5)CC4)cc3C2=O)C(=O)N1 (stereo not shown) [Compound 43, 5-(4-(3-((4-((8-cyclopentyl-7-oxo-7,8-dihydro-pyrido[2,3-d]pyrimidin-2-yl)amino)piperidin-1-yl)sulfonyl)-5-fluorobenzyl)piperazin-1-yl)-2-(2,6-dioxopiperidin-3-yl)-6-fluoroisoindoline-1,3-dione]	401 nM	465 nM
O=C1CCC(N2Cc3c(OCCN4CC(Oc5cccc(S(=O)(=O)N6CCC(Nc7ncc8ccc(=O)n(C9CCCC9)c8n7)CC6)c5)C4)cccc3C2=O)C(=O)N1 (stereo not shown) [Compound 27, 3-(4-(2-(3-(3-((4-((8-cyclopentyl-7-oxo-7,8-dihydropyrido[2,3-d]pyrimidin-2-yl)amino)-piperidin-1-yl)sulfonyl)phenoxy)azetidin-1-yl)-ethoxy)-1-oxoisoindolin-2-yl)piperidine-2,6-dione]	334 nM	882 nM
CN(C[C@H]1CN(CCCc2cccc3c2n(C)c(=O)n3C2CCC(=O)NC2=O)CCO1)S(=O)(=O)N1CCC(Nc2ncc3ccc(=O)n(C4CCCC4)c3n2)CC1 (stereo partly drawn) [Compound 24, 4-((8-cyclopentyl-7-oxo-7,8-dihydropyrido[2,3-d]pyrimidin-2-yl)amino)-N-(((2R)-4-(3-(1-(2,6-dioxopiperidin-3-yl)-3-methyl-2-oxo-2,3-dihydro-1H-benzo[d]imidazol-4-yl)propyl)morpholin-2-yl)methyl)-N-methylpiperidine-1-sulfonamide]	169 nM	194 nM
Cn1c(=O)n(C2CCC(=O)NC2=O)c2cccc(C#CCOC3CCN(S(=O)(=O)N4CCC(Nc5ncc6ccc(=O)n(C7CCCC7)c6n5)CC4)CC3)c21 (stereo not shown) [Compound 14, 3-(4-(3-((1-((4-((8-cyclopentyl-7-oxo-7,8-dihydropyrido[2,3-d]pyrimidin-2-yl)amino)-piperidin-1-yl)sulfonyl)piperidin-4-yl)oxy)prop-1-yn-1-yl)-3-methyl-2-oxo-2,3-dihydro-1H-benzo[d]imidazol-1-yl)piperidine-2,6-dione]	668 nM	633 nM
Cn1c(=O)n(C2CCC(=O)NC2=O)c2cccc(C3CN(Cc4cccc(S(=O)(=O)N5CCC(Nc6ncc7ccc(=O)n(C8CCCC8)c7n6)CC5)c4)C3)c21 (stereo not shown) [Compound 40, 3-(4-(1-(3-((4-((8-cyclopentyl-7-oxo-7,8-dihydropyrido[2,3-d]pyrimidin-2-yl)amino)piperidin-1-yl)sulfonyl)benzyl)azetidin-3-yl)-3-methyl-2-oxo-2,3-dihydro-1H-benzo[d]imidazol-1-yl)piperidine-2,6-dione]	297 nM	135 nM
Cn1c(=O)n(C2CCC(=O)NC2=O)c2cccc(C3CCN(C4CCN(S(=O)(=O)N5CCC(Nc6ncc7ccc(=O)n(C8CCCC8)c7n6)CC5)CC4)CC3)c21 (stereo not shown) [Compound 31, 3-(4-(1′-((4-((8-cyclopentyl-7-oxo-7,8-dihydro-pyrido[2,3-d]pyrimidin-2-yl)amino)piperidin-1-yl)sulfonyl)-[1,4′-bipiperidin]-4-yl)-3-methyl-2-oxo-2,3-dihydro-1H-benzo[d]imidazol-1-yl)piperidine-2,6-dione]	64 nM	294 nM
O=C1CCC(N2C(=O)c3cccc(CCCOCCOCCNS(=O)(=O)N4CCC(Nc5ncc6ccc(=O)n(C7CCCC7)c6n5)CC4)c3C2=O)C(=O)N1 (stereo not shown) [Compound 11, 4-((8-cyclopentyl-7-oxo-7,8-dihydropyrido[2,3-d]pyrimidin-2-yl)amino)-N-(2-(2-(3-(2-(2,6-dioxopiperidin-3-yl)-1,3-dioxoisoindolin-4-yl)-propoxy)ethoxy)ethyl)piperidine-1-sulfonamide]	499 nM	2060 nM
O=C1CCC(N2C(=O)c3cc(F)c(N4CCN(Cc5cccc(S(=O)(=O)N6CCC(Nc7ncc8cc(C(F)F)c(=O)n(C9CCCC9)c8n7)CC6)c5)CC4)cc3C2=O)C(=O)N1 (stereo not shown) [Compound 45, 5-(4-(3-((4-((8-cyclopentyl-6-(difluoromethyl)-7-oxo-7,8-dihydropyrido[2,3-d]pyrimidin-2-yl)-amino)piperidin-1-yl)sulfonyl)-benzyl)piperazin-1-yl)-2-(2,6-dioxopiperidin-3-yl)-6-fluoro-isoindoline-1,3-dione]	378 nM	267 nM

The remaining compounds from weak to strong by IC50 [1], led by results:

IC50 [1]	IC50 [2]	SMILES
4780 nM	697 nM	O=C1CCC(N2C(=O)c3ccc(N4CC(Oc5cccc(S(=O)(=O)N6CCC(Nc7ncc8ccc(=O)n(C9CCCC9)c8n7)CC6)c5)C4)cc3C2=O)C(=O)N1 (stereo not shown) [Compound 12, 5-(3-(3-((4-((8-cyclopentyl-7-oxo-7,8-dihydro-pyrido[2,3-d]pyrimidin-2-yl)amino)piperidin-1-yl)sulfonyl)phenoxy)azetidin-1-yl)-2-(2,6-dioxopiperidin-3-yl)isoindoline-1,3-dione]
791 nM	3790 nM	CN(CCCOCCCc1cccc2c1C(=O)N(C1CCC(=O)NC1=O)C2=O)S(=O)(=O)N1CCC(Nc2ncc3ccc(=O)n(C4CCCC4)c3n2)CC1 (stereo not shown) [Compound 10, 4-((8-cyclopentyl-7-oxo-7,8-dihydropyrido[2,3-d]-pyrimidin-2-yl)amino)-N-(3-(3-(2-(2,6-dioxo-piperidin-3-yl)-1,3-dioxoisoindolin-4-yl)-propoxy)propyl)-N-methylpiperidine-1-sulfonamide]
426 nM	216 nM	O=C1CCC(N2Cc3c(OCCN4CCC(Oc5cccc(S(=O)(=O)N6CCC(Nc7ncc8ccc(=O)n(C9CCCC9)c8n7)CC6)c5)CC4)cccc3C2=O)C(=O)N1 (stereo not shown) [Compound 29, 3-(4-(2-(4-(3-((4-((8-cyclopentyl-7-oxo-7,8-dihydropyrido[2,3-d]pyrimidin-2-yl)amino)-piperidin-1-yl)sulfonyl)phenoxy)piperidin-1-yl)ethoxy)-1-oxoisoindolin-2-yl)piperidine-2,6-dione]
425 nM	355 nM	Cn1c(=O)n(C2CCC(=O)NC2=O)c2cccc(C3CCN(C4CN(c5cccc(S(=O)(=O)N6CCC(Nc7ncc8ccc(=O)n(C9CCCC9)c8n7)CC6)c5)C4)CC3)c21 (stereo not shown) [Compound 72, 3-(4-(1-(1-(3-((4-((8-cyclopentyl-7-oxo-7,8-dihydropyrido[2,3-d]pyrimidin-2-yl)amino)-piperidin-1-yl)sulfonyl)phenyl)azetidin-3-yl)piperidin-4-yl)-3-methyl-2-oxo-2,3-dihydro-1H-benzo[d]imidazol-1-yl)piperidine-2,6-dione]
272 nM	836 nM	O=C1CCC(N2C(=O)c3cc(F)c(N4CC5CCC(C4)N5Cc4cccc(S(=O)(=O)N5CCC(Nc6ncc7ccc(=O)n(C8CCCC8)c7n6)CC5)c4)cc3C2=O)C(=O)N1 (stereo not shown) [Compound 49, 5-(8-(3-((4-((8-cyclopentyl-7-oxo-7,8-dihydro-pyrido[2,3-d]pyrimidin-2-yl)amino)piperidin-1-yl)sulfonyl)benzyl)-3,8-diazabicyclo[3.2.1]octan-3-yl)-2-(2,6-dioxopiperidin-3-yl)-6-fluoroi-soindoline-1,3-dione]
167 nM	10.3 nM	Cn1nc(N2CCC(=O)NC2=O)c2ccc(C3CCN(Cc4cccc(S(=O)(=O)N5CCC(Nc6ncc7ccc(=O)n(C8CCCC8)c7n6)CC5)c4)CC3)cc21 [Compound 71, 1-(6-(1-(3-((4-((8-cyclopentyl-7-oxo-7,8-dihydropyrido[2,3-d]pyrimidin-2-yl)amino)-piperidin-1-yl)sulfonyl)-benzyl)piperidin-4-yl)-1-methyl-1H-indazol-3-yl)dihydropyrimidine-2,4(1H,3H)-dione]
